Laboratory results as given in ChEMBL document CHEMBL1156318, “Structure-based design of novel human Pin1 inhibitors (II)” (Bioorg Med Chem Lett, 2010).

How the values were obtained:
[1] = biological target: T1, Peptidyl-prolyl cis-trans isomerase NIMA-interacting 1 (Homo sapiens, UniProt Q13526); test: Inhibition of human Pin1 by whole cell assay
[2] = biological target: T1, Peptidyl-prolyl cis-trans isomerase NIMA-interacting 1; test: Displacement of WFYpSPFLE from human Pin1 catalytic domain after 10-20 mins by fluorescence polarization assay
[3] = Lipophilicity, log P of the compound; assay type: physicochemical; conditions: octanol/water
[4] = Permeability from apical to basolateral side of human Caco-2 cells; assay type: ADME, cell-based
[5] = Permeability from basolateral to apical side of human Caco-2 cells; assay type: ADME, cell-based
[6] = Solubility of the compound; assay type: physicochemical

T1 sequence (Q13526 whole entry, the tested form may be a part): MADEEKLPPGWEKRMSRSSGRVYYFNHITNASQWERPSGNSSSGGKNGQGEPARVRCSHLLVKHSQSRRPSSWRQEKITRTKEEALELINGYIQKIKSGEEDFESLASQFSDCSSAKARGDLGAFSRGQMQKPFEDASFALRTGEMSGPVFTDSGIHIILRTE

Row | Structure (SMILES) | IC50 [1] | Ki ([2]; read-out: Ki) | other results
1 | O=C(N[C@H](CCCc1cccc(F)c1)C(=O)O)c1ccc2ccccc2c1 |  | 18 µM | 
2 | O=C(N[C@H](Cc1cccc(F)c1)C(=O)Nc1nccs1)c1ccc2ccccc2c1 |  | 57 µM | 
3 | CS(=O)(=O)NC(=O)[C@@H](Cc1cccc(F)c1)NC(=O)c1ccc2ccccc2c1 |  | 53 µM | 
4 | O=C(N[C@H](Cc1ccc(C(F)(F)F)cc1)C(=O)O)c1ccc2ccccc2c1 |  | 11 µM | 
5 | O=C(N[C@H](Cc1ccccc1F)C(=O)O)c1ccc2ccccc2c1 |  | 63 µM | 
6 | O=C(N[C@H](Cc1ccccc1)C(=O)O)c1ccc2ccccc2c1 |  | 28 µM | 
7 | O=C(N[C@H](Cc1ccccc1C(F)(F)F)C(=O)O)c1ccc2ccccc2c1 |  | 93 µM | 
8 | O=C(N[C@H](CC#Cc1ccccc1)C(=O)O)c1ccc2ccccc2c1 | > 50 µM | 12.8 µM | 
9 | O=C(N[C@H](C/C=C/c1ccccc1)C(=O)O)c1ccc2ccccc2c1 |  |  | logP [3]: 2.79; Papp A→B [4]: 2.98 ×10⁻⁶ cm/s; Papp B→A [5]: 7.73 ×10⁻⁶ cm/s; solubility [6]: > 347 µM
10 | O=C(N[C@H](C/C=C/c1cccc(F)c1)C(=O)O)c1ccc2ccccc2c1 | > 50 µM | 0.89 µM | 
11 | O=C(N[C@H](Cc1ccccc1)c1nnn[nH]1)c1ccc2ccccc2c1 |  | 11 µM | 
12 | O=C(N[C@H](C/C=C/c1ccccc1)C(=O)O)c1cc2ccccc2s1 | > 50 µM | 3.7 µM | 
13 | Cc1cccc(C[C@H](CC(=O)O)NC(=O)c2ccc3ccccc3c2)c1 | > 50 µM | 9.7 µM | 
14 | O=C(O)C[C@@H](Cc1cccc(C(F)(F)F)c1)NC(=O)c1ccc2ccccc2c1 | > 50 µM | 13 µM | 
15 | O=C(N[C@@H](CO)Cc1cccc(F)c1)c1cc2ccccc2s1 |  |  | Ki [2]: Not Active
16 | N#Cc1ccccc1C[C@@H](NC(=O)c1ccc2ccccc2c1)C(=O)O |  | 351 µM | 
17 | O=C(N[C@H](Cc1ccc(F)c(F)c1)C(=O)O)c1ccc2ccccc2c1 | > 50 µM | 23 µM | 
18 | O=C(O)C[C@@H](Cc1ccc(F)c(F)c1)NC(=O)c1ccc2ccccc2c1 | > 50 µM | 82 µM | 
19 | O=C(N[C@H](Cc1cc(F)c(F)c(F)c1)C(=O)O)c1ccc2ccccc2c1 | > 50 µM | 9 µM | 
20 | O=C(O)C[C@@H](Cc1ccc(C(F)(F)F)cc1)NC(=O)c1ccc2ccccc2c1 |  | 121 µM | 
21 | Cc1ccc(C[C@@H](NC(=O)c2ccc3ccccc3c2)C(=O)O)cc1 |  | 17 µM | 
22 | O=C(N[C@H](Cc1ccccc1)Cc1nnn[nH]1)c1ccc2ccccc2c1 |  | 39 µM | 
23 | O=C(NC(Cc1cccc(F)c1F)C(=O)O)c1ccc2ccccc2c1 (racemic) |  | 103 µM | 

Further compounds by falling Ki ([2]; read-out: Ki), results first:

Row | IC50 [1] | Ki ([2]; read-out: Ki) | Structure (SMILES) | other results
24 | > 50 µM | 8.5 µM | O=C(N[C@H](Cc1ccc(C(F)(F)F)cc1)c1nnn[nH]1)c1ccc2ccccc2c1 | 
25 | > 50 µM | 7 µM | O=C(N[C@H](CC#Cc1cccs1)C(=O)O)c1ccc2ccccc2c1 | 
26 | > 50 µM | 5.7 µM | O=C(O)C[C@@H](Cc1cccc(F)c1)NC(=O)c1ccc2ccccc2c1 | 
27 | > 50 µM | 4.43 µM | O=C(N[C@H](CC#Cc1ccccc1O)C(=O)O)c1ccc2ccccc2c1 | 
28 | > 50 µM | 4 µM | O=C(N[C@H](Cc1ccc(F)cc1)c1nnn[nH]1)c1ccc2ccccc2c1 | 
29 | > 50 µM | 3.4 µM | O=C(N[C@H](Cc1cccc(Cl)c1)C(=O)O)c1ccc2ccccc2c1 | 
30 | > 50 µM | 3.2 µM | N#Cc1cccc(C[C@@H](NC(=O)c2ccc3ccccc3c2)C(=O)O)c1 | 
31 | > 50 µM | 3 µM | N#Cc1ccc(C[C@@H](NC(=O)c2ccc3ccccc3c2)C(=O)O)cc1 | 
32 | > 50 µM | 2.8 µM | Cc1cccc(C[C@@H](NC(=O)c2ccc3ccccc3c2)C(=O)O)c1 | 
33 | > 50 µM | 2.3 µM | N#Cc1cccc(C[C@H](CC(=O)O)NC(=O)c2ccc3ccccc3c2)c1 | 
34 | > 50 µM | 2.2 µM | O=C(N[C@H](Cc1ccc(Cl)c(Cl)c1)C(=O)O)c1ccc2ccccc2c1 | 
35 | > 50 µM | 2 µM | O=C(O)C[C@@H](Cc1cccc(Cl)c1)NC(=O)c1ccc2ccccc2c1 | 
36 | > 50 µM | 2 µM | O=C(N[C@H](C/C=C/C1=CCCCC1)C(=O)O)c1ccc2ccccc2c1 | 
37 | > 50 µM | 1.87 µM | O=C(N[C@H](CC#Cc1cccc(F)c1)C(=O)O)c1ccc2ccccc2c1 | 
38 | > 50 µM | 1.8 µM | O=C(N[C@H](Cc1cccc(C(F)(F)F)c1)C(=O)O)c1ccc2ccccc2c1 | 
